Laboratory results reported in patent US20080039434A1, “Treatment of Interstitial Cystitis with Vitamin D Compounds” (BioXell S. p.A., priority 2004, published 2008).

Legend:
[1] = tested on: rats with CYP-induced cystitis; test: Cystometry in rats with CYP induced chronic IC, Compound B; format: in vivo, rat; conditions: for # of NVBC / FP / MP / TP / amplitude of NVBC / Bl. Cap.: group value; for Bl. Cap.: unit from FIG. 5 legend
Description: Wistar rats ([…] weighing 125-175 g, age 8 weeks) were used. Under general inhalation anesthesia with 2% isoflurane, polyethylene tubing (PE-50, Clay Adams, Parsippany, N.J.) with the end flared by heat was inserted into the dome of the bladder and secured in place with a 6-0 nylon purse string suture. The distal end of the tubing was sealed, tunneled subcutaneously and externalized through a small incision at the back of the neck. The tubing was then coiled and buried subcutaneously. Following recovery (5 days) subject animals underwent three intraperitoneal injections of CYP (Sigma Chemical, St. Louis, Mo.; 75 mg/kg each, intraperitoneal) over the period of nine days. […] Two weeks following the initiation of the treatment animals underwent a conscious cystometrogram to assess the function of the urinary bladder. […] An ethanol stock solution of Compound B (1 mg/ml) was dissolved in Miglyol vehicle at the appropriate concentration. Control animals received the vehicle containing the same amount of ethanol. Drug (or vehicle) treatment was carried out by daily gavage after weighing the animal. Drug solution was prepared calculating a final volume of 100 ul/10 grams body weight. Following two weeks of treatment, animals were placed unrestrained in a cage and the distal end of the catheter was extracted from the subcutaneous pouch and connected via T-tube to a pressure transducer (Grass® Model PT300, West Warwick, R.I.) and microinjection pump (Harvard Apparatus 22, South Natick, Mass.). Saline solution (0.9%, room temperature) was infused into the bladder at a rate of 10 ml/h. Intravesical pressure was recorded continuously using a Neurodata Acquisition System (Grass®, Astro-Med, West Warwick, R.I.). At a minimum, three reproducible micturition cycles were recorded. […] The post-void residual (PVR) was measured by aspirating the residual urine remaining in the bladder after the last micturition or draining the bladder by gravity. Bladder capacity (BC) was calculated as the sum of voided volume and PVR. The bladder was harvested and its weight was recorded following euthanasia.

MMCP1 protein = test: Serum level of mast-cell derived chymase MMCP1 protein, allergic IC in mice; format: in vivo, mouse
Experimental: (§1) Mice (BALB/c, females 8 weeks old, weight 18-20 g, Charles River, Calco ITA) were sensitized by injecting 10 ug/mouse of chicken ovalbumin from Sigma (OVA, grade V) in the presence of 4 mg of alum (SERVA, Germany) by intraperitoneal injection, once a week for 4 weeks. This induces a sustained level of IgE detectable in serum.
(§2) One or two weeks after the last immunization boost, sensitized mice were anesthetized (1.5% Isoflurane) and then trans-urethrally catheterized (24 gauge, ¾ in.; Angiocath, Becton-Dickson). Slight digital pressure was applied the lower abdomen to drain the urine.
(§3) The urinary bladders were instilled with either 150 ul of either saline or OVA alone, (1 mg/150 ul) infused at a slow rate to avoid trauma and vesico-ureteral reflux and repeated twice within a 30-min interval with the syringe kept in place on the catheter for at least 30 min. Intravesical challenge was repeated 7-10 days after the first one with the same procedure.
Treatment Group: 10 mice were treated with oral vitamin D3 analogue (1-alpha-fluoro-25-hydroxy-16,23Ediene-26,27-bishomo-20-epi-cholecalciferol) Compound “B” for 14 days (daily dose of either 30 or 75 ug/kg).
(§4) An ethanol stock solution of Compound B (1 mg/ml) was dissolved in Miglyol vehicle at the appropriate concentration. Control animals received the vehicle containing the same amount of ethanol. Drug (or vehicle) treatment was carried out by daily gavage after weighing the animal. Drug solution was prepared calculating a final volume of 100 ul/10 grams body weight, and treatment was started on the day of the first intravesical ovalbumin challenge, maintained daily, but discontinued over the weekends, for 12 days total treatment. FIG. 7 illustrates the timeline of the experiment.
(§5) Experiments in Example 7 were performed according to the general procedures described previously in Example 6. Mice were challenged with saline (untreated) or ovalbumin (treatment with vehicle or one of Compounds C-I at a dosage indicated in Table 6 in ug/kg).

[2] = Calcemia assessment in allergic IC mice (colorimetric serum calcium assay); format: in vivo, mouse; parameters: serum calcium levels: dose or concentration left out as unconfirmed
Experimental: Serum calcemia was evaluated by a commercially available colorimetric assay (Calcium Dry-Fast, Sentinel CH. Italy). Briefly, 10 ul serum were added to 100 ul reaction solution prepared according to the manufacturer's procedure in a 96-wells plate. After 5 min incubation at RT samples were read at 570 nm with a spectrophotometer and the calcium levels were calculated in triplicate by using a standard reference as directed.

[3] = tested on: ovalbumin-challenged mouse bladder; test: Blind histological analysis of bladder sections, allergic IC in mice; format: in vivo
Experimental: as §1, §2, §3, §4
Bladders were explanted from the animals, longitudinally divided in two moieties, one half was either immediately fixed in formalin (10% buffered) for at least 3 hrs or snap frozen in liquid nitrogen upon inclusion in OCT freezing medium (Tissue-Tek Sakura). For histological analysis, fixed bladders were further processed and finally paraffin embedded. Five um sections were serially cut then stained with GIEMSA (BDH, 20% solution, 3 hrs RT) and then de-stained in 0.1% acetic acid for 10 sec. After a clarification step in Xylene, slides were permanently mounted with Eukitt medium and analyzed by a pathologist in a blinded fashion in order to evaluate for inflammatory cell infiltrate, mast cell numbers, and the presence of interstitial edema. A semi-quantitative histological score was used, assigning: 1 for mild infiltrate, no edema; 2 for intermediate infiltration, little edema; and 3 for severe infiltration and edema.
as §5

[4] = tested on: allergen-induced chronic bladder inflammation; test: Efficacy ranking in the allergen-induced chronic bladder inflammation model of interstitial cystitis; format: in vivo, mouse; conditions: each compound at its tested dosage
Experimental: as §5
Summarizing all the results presented above in Example 7, we can conclude that these compounds can be ranked with respect to their efficacy in reducing several parameters measuring inflammation of the bladder in the allergen-induced chronic bladder inflammation model of interstitial cystitis.

[5] = 30 ug/kg oral daily for 14 days
[6] = 75 ug/kg oral daily for 14 days
[7] = vs vehicle, not statistically significant
[8] = 75 ug/kg oral vs vehicle, p<0.05
[9] = 75 ug/kg oral vs vehicle, p<0.01

C=C1/C(=C\C=C2/CCC[C@]3(C)C([C@@H](C)C/C=C/C(O)(CC)CC)=CC[C@@H]23)C[C@@H](O)C[C@@H]1F [Compound B, 1-alpha-fluoro-25-hydroxy-16,23E-diene-26,27-bishomo-20-epi-cholecalciferol]
# of NVBC [1, 5]: 11.7
FP [1, 5]: 23.3 cm H2O
MP [1, 5]: 79.3 cm H2O
TP [1, 5]: 29.3 cm H2O
amplitude of NVBC [1, 5]: 16.6
Bl. Cap. [1, 5]: 2.0 mL
# of NVBC [1, 6]: 8.3
FP [1, 6]: 26.1 cm H2O
MP [1, 6]: 90.5 cm H2O
TP [1, 6]: 36.3 cm H2O
amplitude of NVBC [1, 6]: 13.6
Bl. Cap. [1, 6]: 2.1 mL
frequency of non-voiding bladder contractions ([1]; both dosage levels (30 ug/kg, p<0.01; 75 ug/kg, p<0.005) vs vehicle): significantly reduced
bladder capacity ([1]; both dosage levels (30 ug/kg, p<0.01; 75 ug/kg, p<0.01) vs vehicle): increased
amplitude of non-voiding bladder contractions ([1]; higher dose level (75 ug/kg), not statistically significant): reduced
filling pressure [1, 7]: Marginal increase
threshold pressure [1, 7]: Marginal increase
serum levels of chymase MMCP1 protein (MMCP1 protein; [8]): significantly lower
serum calcium level [2, 8]: small, but statistically significant increase
calcemic levels relative to the toxicity threshold ([2]; 75 ug/kg oral, toxicity threshold 10.7 mg/dl in mice): did not cause calcemic levels to rise above the toxicity threshold
serum calcium levels ([2]; lower dosage, not shown): No significant changes
edema in bladder sections ([3]; 75 ug/kg oral vs vehicle, p<0.001): completely resolved
eosinophils in bladder sections [3, 9]: significant reduction
lymphocytes in bladder sections [3, 9]: significant reduction
mast cells in bladder sections [3, 8]: significant reduction
signs of edema in representative bladder slides ([3]; 75 ug/kg oral, FIG. 16, x50 magnification): no signs of edema
Efficacy ranking in reducing parameters of bladder inflammation [4]: Compound E>Compound F>Compound B>Compound H>Compound I>Compound A>Compound A=Compound G

CC(=O)OC1C/C(=C/C=C2\CCC[C@]3(C)C(C(C)C/C=C\C(O)(C(F)(F)F)C(F)(F)F)=CCC23)C[C@@H](OC(C)=O)C1 (stereo partly shown) [Compound A, 1,3-Di-O-acetyl-1,25-dihydroxy-16,23Z-diene-26,27-hexafluoro-19-nor-cholecalciferol]
serum level of the MMCP1 protein (MMCP1 protein; ovalbumin challenged vs vehicle, oral ug/kg: A 0.1, E 0.3, F 30, F p<0.05, A, E p<0.001): statistically significant reduction
serum calcium levels relative to the vehicle treated control group ([2]; oral ug/kg: C 3, A 0.1, E 0.3, F 30, G 100, H 1, I 3, elevations p<0.001): no significant increase
numbers of eosinophils in the bladder wall ([3]; 0.1 ug/kg oral vs vehicle, p<0.05): significantly reduced numbers
Efficacy ranking in reducing parameters of bladder inflammation [4]: Compound E>Compound F>Compound B>Compound H>Compound I>Compound A>Compound A=Compound G
